Experimental data: US8802597B2, “Herbicidal pyrimidines” (E I du Pont de Nemours and Company, priority 2003, dated 2014)
Like-named read-outs stand apart in the source and are kept apart here.

Key:
Experiment in all cases: Test C pre/postemergence
Format in all cases: in vivo
[1] = tested on: cocklebur (Xanthium strumarium); details: for pest or weed control at 31 g/ha / pest or weed control at 62 g/ha / pest or weed control at 125 g/ha / pest or weed control at 250 g/ha: Xanthium strumarium
Description: (§1) Seeds or nutlets of plant species selected from bermudagrass (Cynodon dactylon), Surinam grass (Brachiaria decumbens), cocklebur (Xanthium strumarium), corn (Zea mays), crabgrass (Digitaria sanguinalis), woolly cupgrass (Eriochloa villosa), giant foxtail (Setaria faberii), goosegrass (Eleusine indica), johnsongrass (Sorghum halepense), kochia (Kochia scoparia), lambsquarters (Chenopodium album), morningglory (Ipomoea coccinea), eastern black nightshade (Solanum ptycanthum), yellow nutsedge (Cyperus esculentus), pigweed (Amaranthus retroflexus), common ragweed (Ambrosia elatior), soybean (Glycine max), common (oilseed) sunflower (Helianthus annuus), and velvetleaf (Abutilon theophrasti) were planted and treated preemergence with test chemicals formulated in a non-phytotoxic solvent mixture which included a surfactant.
(§2) At the same time, plants selected from these crop and weed species and also winter barley (Hordeum vulgare), blackgrass (Alopecurus myosuroides), canarygrass (Phalaris minor), chickweed (Stellaria media), downy brome (Bromus tectorum), green foxtail (Setaria viridis), Italian ryegrass (Lolium multiflorum), wheat (Triticum aestivum), wild oat (Avena fatua) and windgrass (Apera spica-venti) were treated with postemergence applications of some of the test chemicals formulated in the same manner. Plants ranged in height from 2 to 18 cm (1- to 4-leaf stage) for postemergence treatments. Plant species in the flooded paddy test consisted of rice (Oryza sativa), umbrella sedge (Cyperus difformis), duck salad (Heteranthera limosa) and barnyardgrass (Echinochloa crus-galli) grown to the 2-leaf stage for testing. Treated plants and controls were maintained in a greenhouse for 12 to 14 days, after which time all species were compared to controls and visually evaluated. Plant response ratings, summarized in Table C, are based on a scale of 0 to 100 where 0 is no effect and 100 is complete control. A dash (-) response means no test result.

[2] = tested on: pigweed (Amaranthus retroflexus); details: for pest or weed control at 31 g/ha / pest or weed control at 62 g/ha / pest or weed control at 125 g/ha / pest or weed control at 250 g/ha: Amaranthus retroflexus
Description: as §1, §2

[3] = tested on: johnsongrass (Sorghum halepense); details: for pest or weed control at 31 g/ha / pest or weed control at 62 g/ha / pest or weed control at 125 g/ha / pest or weed control at 250 g/ha: Sorghum halepense
Description: as §1, §2

kochia (Kochia scoparia) = details: for pest or weed control at 31 g/ha / pest or weed control at 62 g/ha / pest or weed control at 125 g/ha / pest or weed control at 250 g/ha: Bassia scoparia
Description: as §1, §2

[4] = tested on: crabgrass (Digitaria sanguinalis); details: for pest or weed control at 31 g/ha / pest or weed control at 62 g/ha / pest or weed control at 125 g/ha / pest or weed control at 250 g/ha: Digitaria sanguinalis
Description: as §1, §2

[5] = Preemergence, 31 g ai/ha, scale 0 to 100, 0 no effect, 100 complete control
[6] = Preemergence, 62 g ai/ha, scale 0 to 100, 0 no effect, 100 complete control
[7] = Preemergence, 125 g ai/ha, scale 0 to 100
[8] = Preemergence, 250 g ai/ha, scale 0 to 100

CCOC(=O)c1nc(C2CC2)nc(N)c1F [Compound 30]
pest or weed control at 31 g/ha ([1]; post-emergence, Postemergence, 31 g ai/ha, read-out: Plant response rating (scale of 0 to 100), Cocklebur): 90% | pest or weed control at 62 g/ha ([1]; post-emergence, Postemergence, 62 g ai/ha, scale 0 to 100 (0 no effect, 100 complete control), read-out: Cocklebur plant response rating): 95% | pest or weed control at 125 g/ha ([1]; post-emergence, Postemergence, 125 g ai/ha, scale 0 to 100 (0 no effect, 100 complete control), read-out: Cocklebur plant response rating): 100% | pest or weed control at 250 g/ha ([1]; post-emergence, Postemergence, 250 g ai/ha, scale 0 to 100, read-out: Plant response rating, Cocklebur): 100% | pest or weed control at 31 g/ha ([1]; pre-emergence, Preemergence, 31 g ai/ha, scale 0 to 100, 0 no effect, 100 complete control, read-out: Plant response rating, Cocklebur): 0% | pest or weed control at 62 g/ha ([1]; pre-emergence, Preemergence, 62 g ai/ha, scale 0 to 100, 0 no effect, 100 complete control, read-out: Plant response rating, Cocklebur): 60% | pest or weed control at 125 g/ha ([1]; pre-emergence, Preemergence, 125 g ai/ha, scale 0 to 100, read-out: Plant response rating, Cocklebur): 85% | pest or weed control at 250 g/ha ([1]; pre-emergence, Preemergence, 250 g ai/ha, scale 0 to 100, read-out: Plant response rating, Cocklebur): 90% | pest or weed control at 31 g/ha ([2]; post-emergence, Postemergence, 31 g ai/ha, read-out: Plant response rating (scale of 0 to 100), Pigweed): 60% | pest or weed control at 62 g/ha ([2]; post-emergence, Postemergence, 62 g ai/ha, scale 0 to 100 (0 no effect, 100 complete control), read-out: Pigweed plant response rating): 70% | pest or weed control at 125 g/ha ([2]; post-emergence, Postemergence, 125 g ai/ha, scale 0 to 100 (0 no effect, 100 complete control), read-out: Pigweed plant response rating): 80% | pest or weed control at 250 g/ha ([2]; post-emergence, Postemergence, 250 g ai/ha, scale 0 to 100, read-out: Plant response rating, Pigweed): 90% | pest or weed control at 31 g/ha ([2]; pre-emergence, Preemergence, 31 g ai/ha, scale 0 to 100, 0 no effect, 100 complete control, read-out: Plant response rating, Pigweed): 0% | pest or weed control at 62 g/ha ([2]; pre-emergence, Preemergence, 62 g ai/ha, scale 0 to 100, 0 no effect, 100 complete control, read-out: Plant response rating, Pigweed): 30% | pest or weed control at 125 g/ha ([2]; pre-emergence, Preemergence, 125 g ai/ha, scale 0 to 100, read-out: Plant response rating, Pigweed): 80% | pest or weed control at 250 g/ha ([2]; pre-emergence, Preemergence, 250 g ai/ha, scale 0 to 100, read-out: Plant response rating, Pigweed): 90% | pest or weed control at 31 g/ha ([3]; post-emergence, Postemergence, 31 g ai/ha, read-out: Plant response rating (scale of 0 to 100), Johnsongrass): 0% | pest or weed control at 62 g/ha ([3]; post-emergence, Postemergence, 62 g ai/ha, scale 0 to 100 (0 no effect, 100 complete control), read-out: Johnsongrass plant response rating): 5% | pest or weed control at 125 g/ha ([3]; post-emergence, Postemergence, 125 g ai/ha, scale 0 to 100 (0 no effect, 100 complete control), read-out: Johnsongrass plant response rating): 10% | pest or weed control at 250 g/ha ([3]; post-emergence, Postemergence, 250 g ai/ha, scale 0 to 100, read-out: Plant response rating, Johnsongrass): 40% | pest or weed control at 31 g/ha ([3]; pre-emergence, Preemergence, 31 g ai/ha, scale 0 to 100, 0 no effect, 100 complete control, read-out: Plant response rating, Johnsongrass): 0% | pest or weed control at 62 g/ha ([3]; pre-emergence, Preemergence, 62 g ai/ha, scale 0 to 100, 0 no effect, 100 complete control, read-out: Plant response rating, Johnsongrass): 0% | pest or weed control at 125 g/ha ([3]; pre-emergence, Preemergence, 125 g ai/ha, scale 0 to 100, read-out: Plant response rating, Johnsongrass): 5% | pest or weed control at 250 g/ha ([3]; pre-emergence, Preemergence, 250 g ai/ha, scale 0 to 100, read-out: Plant response rating, Johnsongrass): 5% | pest or weed control at 31 g/ha (kochia (Kochia scoparia); post-emergence, Postemergence, 31 g ai/ha, read-out: Plant response rating (scale of 0 to 100), Kochia): 55% | pest or weed control at 62 g/ha (kochia (Kochia scoparia); post-emergence, Postemergence, 62 g ai/ha, scale 0 to 100 (0 no effect, 100 complete control), read-out: Kochia plant response rating): 90% | pest or weed control at 125 g/ha (kochia (Kochia scoparia); post-emergence, Postemergence, 125 g ai/ha, scale 0 to 100 (0 no effect, 100 complete control), read-out: Kochia plant response rating): 100% | pest or weed control at 250 g/ha (kochia (Kochia scoparia); post-emergence, Postemergence, 250 g ai/ha, scale 0 to 100, read-out: Plant response rating, Kochia): 100% | pest or weed control at 31 g/ha (kochia (Kochia scoparia); pre-emergence, Preemergence, 31 g ai/ha, scale 0 to 100, 0 no effect, 100 complete control, read-out: Plant response rating, Kochia): 50% | pest or weed control at 62 g/ha (kochia (Kochia scoparia); pre-emergence, Preemergence, 62 g ai/ha, scale 0 to 100, 0 no effect, 100 complete control, read-out: Plant response rating, Kochia): 70% | pest or weed control at 125 g/ha (kochia (Kochia scoparia); pre-emergence, Preemergence, 125 g ai/ha, scale 0 to 100, read-out: Plant response rating, Kochia): 70% | pest or weed control at 250 g/ha (kochia (Kochia scoparia); pre-emergence, Preemergence, 250 g ai/ha, scale 0 to 100, read-out: Plant response rating, Kochia): 90% | pest or weed control at 31 g/ha ([4]; post-emergence, Postemergence, 31 g ai/ha, read-out: Plant response rating (scale of 0 to 100), Crabgrass): 0% | pest or weed control at 62 g/ha ([4]; post-emergence, Postemergence, 62 g ai/ha, scale 0 to 100 (0 no effect, 100 complete control), read-out: Crabgrass plant response rating): 0% | pest or weed control at 125 g/ha ([4]; post-emergence, Postemergence, 125 g ai/ha, scale 0 to 100 (0 no effect, 100 complete control), read-out: Crabgrass plant response rating): 5% | pest or weed control at 250 g/ha ([4]; post-emergence, Postemergence, 250 g ai/ha, scale 0 to 100, read-out: Plant response rating, Crabgrass): 50% | pest or weed control at 31 g/ha ([4]; pre-emergence, Preemergence, 31 g ai/ha, scale 0 to 100, 0 no effect, 100 complete control, read-out: Plant response rating, Crabgrass): 0% | pest or weed control at 62 g/ha ([4]; pre-emergence, Preemergence, 62 g ai/ha, scale 0 to 100, 0 no effect, 100 complete control, read-out: Plant response rating, Crabgrass): 0% | pest or weed control at 125 g/ha ([4]; pre-emergence, Preemergence, 125 g ai/ha, scale 0 to 100, read-out: Plant response rating, Crabgrass): 70% | pest or weed control at 250 g/ha ([4]; pre-emergence, Preemergence, 250 g ai/ha, scale 0 to 100, read-out: Plant response rating, Crabgrass): 85%

CCOC(=O)C(Cl)c1nc(C2CC2)nc(N)c1Br (stereo not drawn) [Compound 31]
Plant response rating, Cocklebur [1, 5]: 0 | Plant response rating, Cocklebur [1, 6]: 60 | Plant response rating, Cocklebur [1, 7]: 75 | Plant response rating, Cocklebur [1, 8]: 85 | Plant response rating, Pigweed [2, 5]: 10 | Plant response rating, Pigweed [2, 6]: 30 | Plant response rating, Pigweed [2, 7]: 35 | Plant response rating, Pigweed [2, 8]: 40 | Plant response rating, Johnsongrass [3, 5]: 0 | Plant response rating, Johnsongrass [3, 6]: 0 | Plant response rating, Johnsongrass [3, 7]: 0 | Plant response rating, Johnsongrass [3, 8]: 5 | Plant response rating, Kochia (kochia (Kochia scoparia); [5]): 0 | Plant response rating, Kochia (kochia (Kochia scoparia); [6]): 0 | Plant response rating, Kochia (kochia (Kochia scoparia); [7]): 50 | Plant response rating, Kochia (kochia (Kochia scoparia); [8]): 70 | Plant response rating, Crabgrass [4, 5]: 0 | Plant response rating, Crabgrass [4, 6]: 0 | Plant response rating, Crabgrass [4, 7]: 0 | Plant response rating, Crabgrass [4, 8]: 0
